According to patent publication US12435061B2 (priority 2020, dated 2025):
Converted amounts (≈) assume the structure as drawn. Where two headings read alike, the source gives them in different places.

Assays:
hTRPV3 [1] = biological target: T1, hTRPV3 (Homo sapiens (Human), UniProt Q8NET8); test: Semi-auto patch clamp recording in nHEK cells (WT or TRPV3-mu transfected); type: cell-based
Protocol: Compounds were tested at room temperature using the whole-cell patch clamp technique with a HEKA EPC 10 usb patch-clamp amplifier (HEKA Elektronik, Germany). Output signals from the amplifier were digitized and recorded with PatchMaster (v2x90.5 HEKA Elektronik, Germany). For quality control, the minimum seal resistance was set at 100 MΩ, and the outward current was stabilized with at least 1 nA of rectifying current at +80 mV while the inward current was stabilized with at least 300 pA of rectifying current at −80 mV.
NPC-1 Chips (Nanion, Germany) were used to trap a single cell. For both WT or transfected cells, chips of the categories 2-3 MOhm and 3-5 MOhm were used. Chips are disposable and each recording required a new chip. 5 μl of internal solution was applied in the inner pore of the chip, then it was screwed on top of the inner electrode. The upper unit of the patch lamp device was assembled over the chip, and 15 μl external buffer were added between the chip pore and the external electrode.
Basal nHEK cells at Passage 2 or 3 and at the density of 70-90% confluency were used for patch clamp or transfection. For patch-clamp, cells were suspended in TrypLE enzyme for 5 min in 37° C., and then harvested using KBM-Gold media. Cells were then centrifuged for 5 min at 110 g RT. Supernatant was then removed, and cells were re-suspended in the KBM-Gold media and maintained at RT until patch-clamp. After patch clamp system was initialized, and once cell was capture on the chip, media was washed together with free cells, and replaced by external buffer. For TRPV3-mu transfected cells, cells were maintained in KBM-Gold media containing 3 uM of the tested antagonist.
nHEK cells were transfected according to SOP KP-Lab-001.For patch clamp, cells were seeded in 12 well plate and harvested 24 hours after transfection according to the SOP section 2.8.2 “Cell preparation for patch clamp”.
For WT nHEK cells, the “intermediate protocol” in the semi-automatic Port-a-Patch device software was selected based on the parameters: initial sealing, measured by resistance, and its ability to maintain sealing along with assay.
The procedure was started with the “Startup procedure” protocol that validates chip contact and adjusts offset, then after the system was ready, 5 μl of cells suspended in extracellular buffer was added and the intermediate protocol was automatically launched.
When a cell was trapped by vacuum, the value “v-membrane” was raised by 100%, then 15 μl of sealing solution was added. The procedure continued automatically through all its steps until the final step “maintain the whole-cell”. At this step, the sealing solution was washed using three 20 μl washes with an external buffer, and the values C-fast and C-slow were adjusted twice using the “Auto E” buttons.
The sensitivity of reading was adjusted by changing the gain from 2.0 to 0.5.
To initiate recording, the “Ramp” protocol was initiated, and currents were recorded for several minutes until the signal remained stable for both inward and outward currents.
For TRPV3-mu transfected nHEK cells, a similar procedure was used, but with “Fragile protocol”, and the addition of the antagonist at the step of sealing.
Nanion's system automatically maintained cells in the holding potential of −40 mV. Then the voltage was ramped from […] for 160 ms. Finally, the voltage was stepped back to the holding potential (−40 mV). This voltage command protocol was repeated in cycles of 400 ms (FIG. 1).
The solution was then gently mixed and current recording resumed.
Within each cellular recording, the percent of control values were calculated for each test compound concentration-current response based on peak current in the presence of the agonist and full response.
Target sequence in this assay (Q8NET8 whole entry, looked up): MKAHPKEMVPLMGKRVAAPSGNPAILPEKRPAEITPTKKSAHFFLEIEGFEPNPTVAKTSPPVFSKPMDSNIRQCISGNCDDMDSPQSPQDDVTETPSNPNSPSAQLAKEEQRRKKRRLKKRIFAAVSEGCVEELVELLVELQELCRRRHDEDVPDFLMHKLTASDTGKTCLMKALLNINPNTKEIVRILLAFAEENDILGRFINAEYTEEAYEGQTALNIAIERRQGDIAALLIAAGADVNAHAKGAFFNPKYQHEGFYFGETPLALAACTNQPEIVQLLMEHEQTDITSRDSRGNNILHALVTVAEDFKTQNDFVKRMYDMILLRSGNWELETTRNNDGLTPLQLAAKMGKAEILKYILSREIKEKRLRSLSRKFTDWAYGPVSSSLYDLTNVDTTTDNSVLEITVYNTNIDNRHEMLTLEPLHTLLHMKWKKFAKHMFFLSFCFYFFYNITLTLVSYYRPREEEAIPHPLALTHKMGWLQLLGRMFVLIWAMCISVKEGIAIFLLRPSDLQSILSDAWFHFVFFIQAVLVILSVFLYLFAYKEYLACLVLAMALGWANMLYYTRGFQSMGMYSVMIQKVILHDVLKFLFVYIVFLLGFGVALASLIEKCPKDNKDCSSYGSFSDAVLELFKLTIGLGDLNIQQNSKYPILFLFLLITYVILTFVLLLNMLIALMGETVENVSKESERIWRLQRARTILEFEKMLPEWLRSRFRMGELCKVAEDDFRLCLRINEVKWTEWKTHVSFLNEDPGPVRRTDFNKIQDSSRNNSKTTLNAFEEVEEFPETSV

human hERG channels = human hERG channels (Homo sapiens (Human), UniProt Q12809); test: hERG assay (patch clamp, CHO cells); type: cell-based
Protocol: hERG assay: Briefly, cells from a stable CHO cell line expressing human hERG channels were plated onto glass coverslips and used in patch clamp assays on the same day. After seal formation and break-in to whole-cell configuration, voltage steps were applied as follows: from the holding potential of −90 mV, a 2 second long step to +40 mV was applied, followed by a 1.5 second step to −50 mV. These steps were applied once every 5 seconds. The hERG current was measured at the peak of the outward tail current at −50 mV. The pipette solution was potassium aspartate based and the external solution was normal Ringer's.
All currents were recorded in whole-cell configuration using an Axopatch 200B controlled by pClamp 10 software (Molecular Devices). In each cell, when the current stabilized, the compound was perfused locally onto the cell. Two to three concentrations of the test compound were applied to each cell. At the end of compound testing, 10 μM verapamil was applied to completely block hERG currents and assess leak current.
Data were analyzed by computing the degree of current block after compound addition compared with the unblocked current amplitude. The unblocked current was predicted from the interpolation between the current amplitude prior to compound addition and after compound washout. The resulting percent block at each concentration was used to make a concentration-response plot and fitted to the Hill equation: percent block=minimum block+(maximum block-minimum block)/(1+10^(Hill slope*(log IC50−concentration))).

[2] = Metabolic Stability assay, rat liver microsomes; type: in vitro ADME; conditions: read-out: LM T1/2 (min) rat
Summary of the method: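 Reactions in human or rat liver microsomes at 37 °C were started with an NADPH-regenerating system, using 1 μM compound initially. Samples were taken at 0, 7, 15, 30 and 60 min, quenched in ice-cold acetonitrile/MeOH/H2O, and quantified by HPLC/MS/MS.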

hTRPV3 [3] = biological target: T1, hTRPV3; test: Whole-cell patch clamp, hTRPV3 Phase 1 / Phase 2 currents; type: cell-based; conditions: Phase 1 current
Summary of the method: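 Currents are activated by 20 μM 2-APB or by perfusate at 28 °C or warmer, in Ringer's solution, and quantified at ±80 mV.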
Target sequence in this assay (Q8NET8 whole entry): as the sequence (Q8NET8 whole entry, looked up) above

[4] = Aqueous solubility assay in Normal Ringer Solution; conditions: Normal Ringer Solution, saline or isotonic, kinetic from dmso stock
Protocol: Following vortex and incubation for a sufficient time (e.g. 40 minutes at room temperature), solutions were filtered, quenched with acetonitrile, and analyzed by Liquid Chromotography. Solubility Limits were determined by comparison to a standard curve.

[5] = human TRPV3, read-out: hTRPV3 (nM) Phase 1
[6] = inward, whole-cell patch clamp, read-out: hTRPV3 Patch P1 Inwd

Sequence of human hERG channels (Q12809 whole entry): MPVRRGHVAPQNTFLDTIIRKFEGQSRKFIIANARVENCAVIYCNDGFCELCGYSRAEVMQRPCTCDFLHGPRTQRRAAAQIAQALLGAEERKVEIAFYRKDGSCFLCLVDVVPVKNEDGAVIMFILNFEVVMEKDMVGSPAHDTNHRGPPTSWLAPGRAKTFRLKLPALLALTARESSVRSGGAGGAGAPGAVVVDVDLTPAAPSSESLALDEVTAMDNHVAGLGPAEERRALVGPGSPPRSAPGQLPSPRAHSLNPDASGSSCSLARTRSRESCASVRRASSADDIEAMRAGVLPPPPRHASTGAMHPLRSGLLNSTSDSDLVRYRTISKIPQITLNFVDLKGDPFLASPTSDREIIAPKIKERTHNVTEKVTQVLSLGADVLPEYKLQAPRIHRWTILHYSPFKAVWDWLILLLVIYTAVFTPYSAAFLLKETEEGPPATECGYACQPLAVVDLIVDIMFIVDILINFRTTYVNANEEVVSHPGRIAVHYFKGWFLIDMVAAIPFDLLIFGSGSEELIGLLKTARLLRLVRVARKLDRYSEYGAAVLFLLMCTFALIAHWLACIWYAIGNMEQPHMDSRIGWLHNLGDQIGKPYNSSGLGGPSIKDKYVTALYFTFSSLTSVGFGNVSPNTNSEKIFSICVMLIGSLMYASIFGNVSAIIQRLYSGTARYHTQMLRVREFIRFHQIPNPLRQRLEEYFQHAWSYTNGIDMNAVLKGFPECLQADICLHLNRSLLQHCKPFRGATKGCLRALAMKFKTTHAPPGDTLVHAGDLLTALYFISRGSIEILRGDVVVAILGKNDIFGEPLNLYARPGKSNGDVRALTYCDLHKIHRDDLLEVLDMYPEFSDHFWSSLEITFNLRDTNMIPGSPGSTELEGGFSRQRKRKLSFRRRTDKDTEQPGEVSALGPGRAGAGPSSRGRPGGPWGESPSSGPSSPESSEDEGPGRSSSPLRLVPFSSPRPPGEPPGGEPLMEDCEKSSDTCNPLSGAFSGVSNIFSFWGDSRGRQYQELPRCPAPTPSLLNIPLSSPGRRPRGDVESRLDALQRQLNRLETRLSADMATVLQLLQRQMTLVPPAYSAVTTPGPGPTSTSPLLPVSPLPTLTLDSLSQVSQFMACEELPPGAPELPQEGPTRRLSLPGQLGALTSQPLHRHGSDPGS

Compound	IC50 (hTRPV3 [1])	half-life at 1 μM [2]	IC50 (hTRPV3 [3]; [5])	solubility at 40 min [4]	further results
CC(C)c1ccccc1-c1ccc([C@H]2CCN(C(=O)c3ccc(F)cn3)C2)c(CO)c1 (stereo in doubt) [KM-002-E1, (5-Fluoro-pyridin-2-yl)-[3-(3-hydroxymethyl-2′-isopropyl-biphenyl-4-yl)-pyrrolidin-1-yl]-methanone]	< 10 nM				
Cc1nc(C(=O)N2CC[C@H](c3ccc(-c4ccccc4C4CC4)cc3CO)C2)ccc1O (stereo in doubt) [KM-023-E1, [3-(2′-Cyclopropyl-3-hydroxymethyl-biphenyl-4-yl)-pyrrolidin-1-yl]-(5-hydroxy-6-methyl-pyridin-2-yl)-methanone]	< 10 nM				
COc1cncc(C(=O)N2CC[C@H](c3ccc(-c4ccccc4C4CC4)cc3CO)C2)n1 (stereo in doubt) [KM-031-E1, [3-(2′-Cyclopropyl-3-hydroxymethyl-biphenyl-4-yl)-pyrrolidin-1-yl]-(6-methoxy-pyrazin-2-yl)-methanone]	10 to 100 nM				
Cc1cncc(C(=O)N2CC[C@H](c3ccc(-c4ccccc4C4CC4)cc3CO)C2)n1 (stereo in doubt) [KM-032-E1, [3-(2′-Cyclopropyl-3-hydroxymethyl-biphenyl-4-yl)-pyrrolidin-1-yl]-(6-methyl-pyrazin-2-yl)-methanone]	10 to 100 nM				
COCc1cccc(C(=O)N2CC[C@H](c3ccc(-c4ccccc4C4CC4)cc3CO)C2)n1 (stereo in doubt) [KM-036-E1, [3-(2′-Cyclopropyl-3-hydroxymethyl-biphenyl-4-yl)-pyrrolidin-1-yl]-(6-methoxymethyl-pyridin-2-yl)-methanone]	10 to 100 nM				
CNc1cncc(C(=O)N2CC[C@H](c3ccc(-c4ccccc4C4CC4)cc3CO)C2)n1 (stereo in doubt) [KM-054-E1, [3-(2′-Cyclopropyl-3-hydroxymethyl-biphenyl-4-yl)-pyrrolidin-1-yl]-(6-methylamino-pyrazin-2-yl)-methanone]	< 10 nM				
CCc1ccccc1-c1ccc(C2CCN(C(=O)c3cc(Cl)ccn3)C2)c(CO)c1 (stereo not shown) [Compound 2-48, (4-chloropyridin-2-yl)(3-(2′-ethyl-3-(hydroxymethyl)biphenyl-4-yl)pyrrolidin-1-yl) methanone]		7.54 min	69.3 nM	> 8 µM	IC50 (human hERG channels; (PL), read-out: hERG (nM) (PL)): 13400 nM; IC50 (hTRPV3 [3]; [6]): 10 to 100 nM
CCc1c(C)cccc1-c1ccc(C2CCN(C(=O)c3ccc(F)cn3)C2)c(CO)c1 (stereo not shown) [Compound 2-64, (3-(2′-ethyl-3-(hydroxymethyl)-3′-methylbiphenyl-4-yl)pyrrolidin-1-yl)(5-fluoropyridin-2-yl)methanone]		6.38 min	18 nM	> 15.7 µM	IC50 (human hERG channels; (PL), read-out: hERG (nM) (PL)): 10100 nM; IC50 (hTRPV3 [3]; [6]): 10 to 100 nM
CCOc1ccccc1-c1ccc(C2CCN(C(=O)c3ccc(Cl)cn3)C2)c(CO)c1 (stereo not shown) [Compound 2-69, (5-chloropyridin-2-yl)(3-(2′-ethoxy-3-(hydroxymethyl)biphenyl-4-yl)pyrrolidin-1-yl)methanone]		12.6 min	25.3 nM	> 16 µM	IC50 (human hERG channels; (PL), read-out: hERG (nM) (PL)): 12300 nM; IC50 (hTRPV3 [3]; [6]): 10 to 100 nM
CCc1ccccc1Oc1ccc(C2CCN(C(=O)c3ncccc3Cl)C2)c(CO)c1 (stereo not shown) [Compound 2-83, (3-chloropyridin-2-yl)(3-(4-(2-ethylphenoxy)-2-(hydroxymethyl)phenyl)pyrrolidin-1-yl)methanone]		9.46 min	95.1 nM	> 11 µM	IC50 (human hERG channels; (PL), read-out: hERG (nM) (PL)): 16000 nM
CC(C)c1ccccc1Oc1ccc(C2CC(=O)N(Cc3ccccn3)C2)c(CO)c1 (stereo not shown) [Compound 2-93, 4-(2-(hydroxymethyl)-4-(2-isopropylphenoxy)phenyl)-1-(pyridin-2-ylmethyl)pyrrolidin-2-one]		5.05 min	205 nM	~4.2 µM (≈ 1.75 µg/mL)	IC50 (human hERG channels): ~5970 nM; IC50 (human hERG channels; (M), read-out: hERG): ~10800 nM; IC50 (hTRPV3 [3]; [6]): 100 to 1000 nM
O=C(c1cnccn1)N1CCC(c2ccc(-c3ccccc3C3CC3)cc2CO)C1 (stereo not shown) [Compound 2-105, (3-(2′-cyclopropyl-3-(hydroxymethyl)biphenyl-4-yl)pyrrolidin-1-yl)(pyrazin-2-yl)methanone]		12.9 min	61.2 nM	> 21 µM	IC50 (human hERG channels; (PL), read-out: hERG (nM) (PL)): 11700 nM; IC50 (hTRPV3 [3]; [6]): 10 to 100 nM
CC(C)c1ccccc1-c1ccc([C@@H]2CCN(C(=O)c3ccc(F)cn3)C2)c(CO)c1 [KM-002-E2]	10 to 100 nM				
COCc1cccc(C(=O)N2CCC(c3ccc(-c4ccccc4C4CC4)cc3CO)C2)n1 (stereo not shown) [KM-036]	10 to 100 nM				
CNc1cncc(C(=O)N2CCC(c3ccc(-c4ccccc4C(C)C)cc3CO)C2)n1 (stereo not shown) [KM-069, [3-(3-Hydroxymethyl-2′-isopropyl-biphenyl-4-yl)-pyrrolidin-1-yl]-(6-methylamino-pyrazin-2-yl)-methanone]	10 to 100 nM				
COCc1cncc(C(=O)N2CCC(c3ccc(-c4ccccc4C4CC4)cc3CO)C2)n1 (stereo not shown) [KM-070, [3-(2′-Cyclopropyl-3-hydroxymethyl-biphenyl-4-yl)-pyrrolidin-1-yl]-(6-methoxymethyl-pyrazin-2-yl)-methanone]	10 to 100 nM				
COc1cncc(C(=O)N2CCC(c3ccc(-c4cccc5c4CCC5)cc3CO)C2)n1 (stereo not shown) [KM-071, [3-(2-Hydroxymethyl-4-indan-4-yl-phenyl)-pyrrolidin-1-yl]-(6-methoxy-pyrazin-2-yl)-methanone]	10 to 100 nM				
Cc1nc(C(=O)N2CCC(c3ccc(-c4ccc(F)cc4C4CC4)cc3CO)C2)ccc1O (stereo not shown) [KM-084]	10 to 100 nM				
Cc1nc(C(=O)N2CCC(c3ccc(-c4cc(F)ccc4C4CC4)cc3CO)C2)ccc1O (stereo not shown) [KM-085]	< 10 nM				
